Data reported in BindingDB's records for doi:10.1038/sj.bjp.0701367 (Kyoto University, 1997).

Experiments:
[1] = molecular target: T1, Prostaglandin E2 receptor EP1 subtype (Mus musculus, UniProt P35375)
T1 sequence (P35375 whole entry): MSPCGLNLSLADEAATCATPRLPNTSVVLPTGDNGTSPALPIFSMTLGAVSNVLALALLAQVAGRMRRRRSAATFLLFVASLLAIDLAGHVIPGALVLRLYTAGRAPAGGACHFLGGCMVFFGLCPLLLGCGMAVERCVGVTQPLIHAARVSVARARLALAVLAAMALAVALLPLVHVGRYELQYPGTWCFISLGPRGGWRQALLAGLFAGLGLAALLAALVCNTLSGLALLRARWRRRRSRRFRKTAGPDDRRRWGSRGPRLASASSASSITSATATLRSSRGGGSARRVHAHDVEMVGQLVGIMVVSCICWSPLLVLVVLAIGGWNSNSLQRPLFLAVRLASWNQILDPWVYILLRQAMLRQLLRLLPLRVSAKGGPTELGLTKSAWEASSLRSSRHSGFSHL

[2] = molecular target: Prostaglandin E2 receptor EP2 subtype (Mus musculus, UniProt Q62053)
Chain of Prostaglandin E2 receptor EP2 subtype (Q62053 whole entry): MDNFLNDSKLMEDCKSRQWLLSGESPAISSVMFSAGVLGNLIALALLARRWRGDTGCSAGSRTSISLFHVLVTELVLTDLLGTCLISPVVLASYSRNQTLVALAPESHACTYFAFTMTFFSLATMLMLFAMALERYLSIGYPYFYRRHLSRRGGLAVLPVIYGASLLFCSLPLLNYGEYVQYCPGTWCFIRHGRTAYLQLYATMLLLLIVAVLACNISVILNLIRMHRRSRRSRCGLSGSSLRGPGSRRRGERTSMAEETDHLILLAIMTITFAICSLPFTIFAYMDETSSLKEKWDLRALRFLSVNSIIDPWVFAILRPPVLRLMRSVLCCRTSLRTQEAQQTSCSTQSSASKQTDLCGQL

[3] = molecular target: Prostaglandin E2 receptor EP4 subtype (Mus musculus, UniProt P32240)
Chain of Prostaglandin E2 receptor EP4 subtype (P32240 whole entry): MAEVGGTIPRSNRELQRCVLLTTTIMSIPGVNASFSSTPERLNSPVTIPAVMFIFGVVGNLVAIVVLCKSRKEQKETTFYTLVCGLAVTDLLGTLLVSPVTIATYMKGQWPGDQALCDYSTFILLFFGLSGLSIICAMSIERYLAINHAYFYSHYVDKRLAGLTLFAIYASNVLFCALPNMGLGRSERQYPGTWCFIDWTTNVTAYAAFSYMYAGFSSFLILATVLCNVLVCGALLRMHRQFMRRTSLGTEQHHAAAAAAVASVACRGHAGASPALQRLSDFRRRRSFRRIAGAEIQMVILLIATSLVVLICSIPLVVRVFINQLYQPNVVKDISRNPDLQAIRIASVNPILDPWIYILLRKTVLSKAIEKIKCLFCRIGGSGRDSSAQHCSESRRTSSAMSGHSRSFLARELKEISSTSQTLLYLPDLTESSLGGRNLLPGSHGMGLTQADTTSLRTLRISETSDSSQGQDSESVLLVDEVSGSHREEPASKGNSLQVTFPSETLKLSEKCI

[4] = molecular target: T2, Prostaglandin E2 receptor EP3 subtype (Mus musculus, UniProt P30557)
T2 sequence (P30557 whole entry): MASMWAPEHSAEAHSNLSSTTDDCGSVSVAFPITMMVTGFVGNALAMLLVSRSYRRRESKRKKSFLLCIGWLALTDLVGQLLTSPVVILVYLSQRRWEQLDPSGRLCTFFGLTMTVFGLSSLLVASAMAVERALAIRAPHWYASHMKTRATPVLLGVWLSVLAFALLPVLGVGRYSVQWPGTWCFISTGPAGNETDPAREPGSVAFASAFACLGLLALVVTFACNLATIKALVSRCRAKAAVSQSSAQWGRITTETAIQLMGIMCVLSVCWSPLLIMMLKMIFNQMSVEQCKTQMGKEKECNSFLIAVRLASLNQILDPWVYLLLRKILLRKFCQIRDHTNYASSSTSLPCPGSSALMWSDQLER

Prostacyclin receptor = Prostacyclin receptor (Mus musculus, UniProt P43252)
Chain of Prostacyclin receptor (P43252 whole entry): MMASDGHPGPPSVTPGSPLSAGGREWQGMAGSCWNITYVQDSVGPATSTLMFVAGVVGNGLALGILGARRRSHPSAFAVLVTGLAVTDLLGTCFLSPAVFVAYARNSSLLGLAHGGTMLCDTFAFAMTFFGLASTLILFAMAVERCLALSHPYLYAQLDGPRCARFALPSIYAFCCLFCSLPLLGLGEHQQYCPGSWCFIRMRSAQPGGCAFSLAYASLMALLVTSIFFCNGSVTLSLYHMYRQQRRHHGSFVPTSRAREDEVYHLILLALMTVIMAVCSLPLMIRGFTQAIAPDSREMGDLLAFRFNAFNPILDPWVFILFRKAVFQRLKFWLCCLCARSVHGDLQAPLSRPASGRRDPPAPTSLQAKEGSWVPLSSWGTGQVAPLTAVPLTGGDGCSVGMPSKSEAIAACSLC

[5] = molecular target: Prostaglandin F2-alpha receptor (Mus musculus, UniProt P43117)
Chain of Prostaglandin F2-alpha receptor (P43117 whole entry): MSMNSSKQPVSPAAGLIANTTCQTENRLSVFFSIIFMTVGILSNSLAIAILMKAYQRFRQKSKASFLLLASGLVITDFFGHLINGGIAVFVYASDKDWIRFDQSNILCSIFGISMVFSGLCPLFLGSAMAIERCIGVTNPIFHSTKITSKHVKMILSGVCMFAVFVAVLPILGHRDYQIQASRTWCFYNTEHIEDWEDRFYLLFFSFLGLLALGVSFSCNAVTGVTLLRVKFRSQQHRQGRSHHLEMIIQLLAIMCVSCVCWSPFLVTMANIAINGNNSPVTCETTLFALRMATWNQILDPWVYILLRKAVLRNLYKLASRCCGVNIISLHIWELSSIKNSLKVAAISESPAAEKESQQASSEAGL

Thromboxane A2 receptor = molecular target: T3, Thromboxane A2 receptor (Mus musculus, UniProt P30987)
T3 sequence (P30987 whole entry): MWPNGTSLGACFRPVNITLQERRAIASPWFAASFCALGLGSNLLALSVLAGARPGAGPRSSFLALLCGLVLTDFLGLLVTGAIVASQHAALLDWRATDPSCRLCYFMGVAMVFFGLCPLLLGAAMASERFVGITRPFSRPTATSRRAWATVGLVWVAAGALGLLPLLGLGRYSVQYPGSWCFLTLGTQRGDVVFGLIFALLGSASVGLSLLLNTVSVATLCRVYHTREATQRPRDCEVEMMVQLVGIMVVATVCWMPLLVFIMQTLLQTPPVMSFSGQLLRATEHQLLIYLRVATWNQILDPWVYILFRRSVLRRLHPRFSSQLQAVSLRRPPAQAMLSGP

CC#CCC(C)[C@H](O)/C=C/[C@@H]1[C@H]2C/C(=C/CCCC(=O)O)C[C@H]2C[C@H]1O (some centres not stated)
Ki [1]: 21 nM | Ki [2]: 1600 nM | Ki [3]: 2300 nM | Ki [4]: 22 nM | Ki (Prostacyclin receptor): 11 nM

CCCCC[C@@H](O)/C=C/[C@H]1[C@H](O)CC(=O)[C@@H]1CCCCCCC(=O)O
Ki [1]: 36 nM | Ki [2]: 10 nM | Ki [3]: 2.1 nM | Ki [4]: 1.1 nM | Ki (Prostacyclin receptor): 33 nM

CCCCC[C@H](O)/C=C/[C@@H]1[C@H]2C/C(=C\CCCC(=O)O)C[C@H]2C[C@H]1O
Ki [2]: 1600 nM | Ki [3]: 2300 nM | Ki [4]: 31 nM | Ki [5]: 1200 nM | Ki (Prostacyclin receptor): 110 nM

CCCCC(C)(C)C(O)C=CC1C(O)CC(=O)C1CC=CCCCC(=O)O (configuration not stated)
Ki [2]: 17 nM | Ki [3]: 43 nM | Ki [4]: 1.9 nM | Ki [5]: 350 nM

O=C(O)CCC/C=C\C[C@@H]1C(NS(=O)(=O)c2ccccc2)C2CC[C@@H]1C2 (single isomer, unassigned; (+)) [S 145]
Ki (Thromboxane A2 receptor): 0.68 nM

O=C(O)CCC/C=C\C[C@H]1C(=O)C[C@@H](O)[C@@H]1/C=C/[C@@H](O)CCc1ccccc1 [17-PHENYL TRINOR PROSTAGLANDIN E2]
Ki [1]: 14 nM | Ki [3]: 1000 nM | Ki [4]: 3.7 nM | Ki [5]: 60 nM

CCCCC[C@H](O)/C=C/C1[C@H](O)C[C@H](O)[C@@H]1C/C=C\CCCC(=O)O (stereo partly drawn) [(Z)-7-[(1R,3R,5S)-3,5-Dihydroxy-2-((E)-(S)-3-hydroxy-oct-1-enyl)-cyclopentyl]-hept-5-enoic acid]
Ki [1]: 1300 nM | Ki [4]: 75 nM

CCCC1([C@@H](O)C/C=C/C2[C@H](O)CC(=O)[C@@H]2CCCCCCC(=O)OC)CCC1 (some centres not stated) [Butaprost (Methyl Ester)]
Ki [2]: 110 nM

CC(C)Oc1ccc2c(=O)c3cc(C(=O)O)ccc3oc2c1 [CAS_33458-93-4]
Ki [2]: 350 nM

O=C(O)CCCC=CCC1C(O)CC(O)C1C=CC(O)COc1cccc(C(F)(F)F)c1 (configuration not stated) [CAS_40666-16-8]
Ki [5]: 3.8 nM

CCCCCC(O)CC=C1C(=O)C=CC1CC=CCCCC(=O)O (configuration not stated) [CAS_41598-07-6]
Ki [4]: 280 nM | Ki [5]: 47 nM

CS(=O)(=O)NC(=O)CCCC=CCC1C(=O)CC(O)C1C=CC(O)COc1ccccc1 (configuration not stated) [CAS_60325-46-4]
Ki [1]: 21 nM | Ki [4]: 0.6 nM | Ki [5]: 580 nM

O=C(O)CCCCCCC1C(=O)CCC1C=CC(O)COc1ccccc1 (configuration not stated) [CAS_80558-61-8]
Ki [1]: 120 nM | Ki [3]: 500 nM | Ki [4]: 0.68 nM | Ki [5]: 124 nM | Ki (Thromboxane A2 receptor): 1300 nM

CCC#CCC(C)C(O)C#CC1C(O)CC2CC(=CCOCC(=O)O)CC21 (configuration not stated) [CAS_94079-80-8]
Ki [2]: 1300 nM | Ki [4]: 170 nM | Ki (Prostacyclin receptor): 10 nM

CCCCCC(O)c1ccc(C2CCC(=O)C2CCCCCCC(=O)O)cc1 (configuration not stated) [CAS_132836]
Ki [2]: 240 nM | Ki [4]: 82 nM

CCCCC[C@H](O)/C=C/[C@H]1[C@H](O)CC(=O)[C@@H]1C/C=C\CCCC(=O)O [DINOPROSTONE]
Ki [1]: 20 nM | Ki [2]: 12 nM | Ki [4]: 0.85 nM | Ki [5]: 100 nM

O=C(O)CC/C=C\CC[C@@H]1[C@@H](N2CCCCC2)[C@@H](O)C[C@@H]1OCc1ccc(-c2ccccc2)cc1 [GR 32191]
Ki (Thromboxane A2 receptor): 12 nM

O=C(O)CCC/C=C\C[C@H]1[C@@H]2CCC(O2)[C@@H]1/C=C/[C@@H](O)COc1ccc(I)cc1 [I-BOP]
Ki [2]: 220 nM | Ki [4]: 100 nM | Ki [5]: 100 nM | Ki (Thromboxane A2 receptor): 0.56 nM

CCCCC(C)(O)CC=CC1C(O)CC(=O)C1CCCCCCC(=O)OC (configuration not stated) [MISOPROSTOL (Methyl Ester)]
Ki [1]: 120 nM | Ki [2]: 250 nM | Ki [3]: 67 nM | Ki [4]: 67 nM

CC#CCC(C)C(O)C=CC1C(O)CC2Oc3c(CCCC(=O)O)cccc3C21 (configuration not stated) [NSC_2352]
Ki [4]: 110 nM | Ki (Prostacyclin receptor): 16 nM

CC1=C(CCON=C(c2ccccc2)c2cccnc2)c2cccc(OCC(=O)O)c2CC1 [NSC_128021]
Ki [4]: 740 nM | Ki (Prostacyclin receptor): 47 nM

O=C(O)CCCCCCc1c(O)[nH]c(=O)n1CCC(O)C1CCCCC1 (configuration not stated) [NSC_3080928]
Ki [5]: 1700 nM

O=C(CCC=CCCC1C(=O)CC(O)C1OCC(O)COc1ccccc1)Oc1ccc(NC(=O)c2ccccc2)cc1 (configuration not stated) [NSC_5311224]
Ki [3]: 480 nM | Ki [4]: 1.9 nM

CCCCCC(O)C=CC1C(O)CC2C=C(CCCCC(=O)O)CC21 (configuration not stated) [NSC_5311244]
Ki [2]: 1000 nM | Ki [4]: 31 nM | Ki (Prostacyclin receptor): 15 nM

O=C(O)CCCCCCC1C(=O)CC(O)C1C=CC(O)CCCCCO (configuration not stated) [PGE1,1-OH]
Ki [3]: 190 nM | Ki [4]: 330 nM

CCCCCC(O)C=CC1CCC(=O)C1CCCCCCC(=O)O (configuration not stated) [PGE1,11-DEOXY]
Ki [1]: 600 nM | Ki [2]: 45 nM | Ki [3]: 23 nM | Ki [4]: 1.5 nM | Ki (Prostacyclin receptor): 1000 nM

C[C@H](O)CCCC(O)C=CC1C(O)CC(=O)C1CC=CCCCC(=O)O (some centres not stated) [PGE2,19R(OH)]
Ki [5]: 1000 nM

CCCCC[C@H](O)/C=C/C1C[C@H]2C[C@H](S2)[C@@H]1C/C=C\CCCC(=O)O (some centres not stated) [STA2]
Ki [2]: 220 nM | Ki [3]: 350 nM | Ki [4]: 23 nM | Ki [5]: 97 nM | Ki (Thromboxane A2 receptor): 14 nM

CCCCC[C@H](O)/C=C/C1[C@@H](C/C=C\CCCC(=O)O)[C@H]2CO[C@@H]1C2 (some centres not stated) [U46619]
Ki [5]: 1000 nM | Ki (Thromboxane A2 receptor): 67 nM
